Measured values reported in patent US11510932B2, “Prophylactic and therapeutic treatment of alzheimer's disease using phytic acid and phytate to reduce amyloid beta plaque and tau protein” (priority 2009, dated 2022).

Key:
[1] = system: NGF-differentiated PC12 cells; conditions: 10 μM; cited from earlier work
MC65 cells [2] = test: APP CTF-induced neurotoxicity (cell viability) in MC65 cells; conditions: for attenuation of APP CTF-induced neurotoxicity (active/inactive): in vitro challenge test
MC65 cells [3] = test: Oxidative stress associated with APP CTF expression, hydrogen peroxide in cell media; format: cell-based, human; conditions: 100 μM
Protocol: In vitro studies were conducted in MC65 cells, an established human neuroblastoma line that conditionally expresses the first 17 amino-terminal residues and the 99 carboxy-terminal residues of amyloid precursor protein (APP CTF). Detectable APP CTF expression occurs within 3-4 h of tetracycline withdrawal, appearance of aggregates and initial losses of culture viability occurs at about 2 days and near complete death occurs by approximately 3 days.

[4] = system: Alzheimer's transgenic mice; test: Toxicity and weight loss in treated Alzheimer's transgenic mice; format: in vivo; conditions: 2% phytic acid in drinking water, about six months
Protocol: (§1) Applicant also submits Table 1 and FIGS. 4-6 showing data from in vivo testing of the subject matter compounds in Alzheimer's transgenic mice. These Alzheimer's transgenic mice are genetically altered to produce Abeta plaque, and were treated for about six months with compounds of the Applicant's invention. Namely, the drinking water was infused with phytic acid so that the final concentration of phytic acid in the drinking water was 2%.

Abeta plaque = Abeta plaque in brains of Alzheimer's transgenic mice versus control vehicle; format: in vivo; conditions: 2% phytic acid, all three cases (FIGS. 4-6)
Protocol: as §1
After six months, the animals were put down for autopsy and necropsy so that Abeta plaque in the brains was assayed, separated and weighed.
FIGS. 4-6 are graphs comparing the tested compound in vivo with the control vehicle.

[5] = humans, ingestion of large doses; cited from earlier work
[6] = system: transgenic mouse model of Alzheimer's Disease; conditions: cited from earlier work
amyloid-B peptide (AB) = conditions: transgenic Alzheimer Disease mouse studies; cited from earlier work

| Compound | rescue from Ab-induced neurotoxicity [1] | attenuation of APP CTF-induced neurotoxicity (active/inactive) (MC65 cells [2]) | oxidative stress associated with APP CTF expression (hydrogen peroxide in the cell media) (MC65 cells [3]) | toxicity in the treated group [4] | weight loss in the treated group [4] | Abeta plaque compared to the control vehicle (Abeta plaque) | physiological discomfort or symptoms of toxicological action [5] | EC50 (MC65 cells [2]; Homo sapiens, MC65, read-out: EC50 concentration, protection from APP CTF-induced death) [µM] | protection from cytotoxicity (MC65 cells [2]; MC65 cells, concentrations of 200 μM and higher) | prevention and reversal of Alzheimer's Disease [6] | aggregation of amyloid-B peptide (AB) (amyloid-B peptide (AB)) |
| --- | --- | --- | --- | --- | --- | --- | --- | --- | --- | --- | --- |
| O[C@H]1[C@H](O)[C@@H](O)[C@H](O)[C@@H](O)[C@H]1O [myo inositol, reference compound] | rescues | inactive |  |  |  |  |  |  |  |  |  |
| O=P(O)(O)O[C@H]1[C@H](OP(=O)(O)O)[C@@H](OP(=O)(O)O)[C@H](OP(=O)(O)O)[C@@H](OP(=O)(O)O)[C@H]1OP(=O)(O)O [phytic acid, myo-inositol-hexakis (dihydrogen phosphate)] |  | active | suppressed oxidative stress | no toxicity | nor any significant weight loss | reduction in Abeta plaque | elicits no physiological discomfort or symptoms of any toxicological action | ~100 | near complete protection |  |  |
| O[C@H]1[C@H](O)[C@@H](O)[C@H](O)[C@@H](O)[C@@H]1O [scyllo inositol] | rescues | inactive |  |  |  |  |  |  |  | prevent and reverse Alzheimer's Disease | inhibits and blocks the aggregation |
